Data taken from ChEMBL document CHEMBL1155542, “Mapping the ATP-binding domain of DNA-dependent protein kinase (DNA-PK) with coumarin- and isocoumarin-derived inhibitors” (Bioorg Med Chem Lett, 2010).

Biological target: DNA-dependent protein kinase catalytic subunit (Homo sapiens, UniProt P78527)
Assay: Inhibition of DNA-dependent protein kinase

DNA-dependent protein kinase catalytic subunit, sequence (P78527 whole entry): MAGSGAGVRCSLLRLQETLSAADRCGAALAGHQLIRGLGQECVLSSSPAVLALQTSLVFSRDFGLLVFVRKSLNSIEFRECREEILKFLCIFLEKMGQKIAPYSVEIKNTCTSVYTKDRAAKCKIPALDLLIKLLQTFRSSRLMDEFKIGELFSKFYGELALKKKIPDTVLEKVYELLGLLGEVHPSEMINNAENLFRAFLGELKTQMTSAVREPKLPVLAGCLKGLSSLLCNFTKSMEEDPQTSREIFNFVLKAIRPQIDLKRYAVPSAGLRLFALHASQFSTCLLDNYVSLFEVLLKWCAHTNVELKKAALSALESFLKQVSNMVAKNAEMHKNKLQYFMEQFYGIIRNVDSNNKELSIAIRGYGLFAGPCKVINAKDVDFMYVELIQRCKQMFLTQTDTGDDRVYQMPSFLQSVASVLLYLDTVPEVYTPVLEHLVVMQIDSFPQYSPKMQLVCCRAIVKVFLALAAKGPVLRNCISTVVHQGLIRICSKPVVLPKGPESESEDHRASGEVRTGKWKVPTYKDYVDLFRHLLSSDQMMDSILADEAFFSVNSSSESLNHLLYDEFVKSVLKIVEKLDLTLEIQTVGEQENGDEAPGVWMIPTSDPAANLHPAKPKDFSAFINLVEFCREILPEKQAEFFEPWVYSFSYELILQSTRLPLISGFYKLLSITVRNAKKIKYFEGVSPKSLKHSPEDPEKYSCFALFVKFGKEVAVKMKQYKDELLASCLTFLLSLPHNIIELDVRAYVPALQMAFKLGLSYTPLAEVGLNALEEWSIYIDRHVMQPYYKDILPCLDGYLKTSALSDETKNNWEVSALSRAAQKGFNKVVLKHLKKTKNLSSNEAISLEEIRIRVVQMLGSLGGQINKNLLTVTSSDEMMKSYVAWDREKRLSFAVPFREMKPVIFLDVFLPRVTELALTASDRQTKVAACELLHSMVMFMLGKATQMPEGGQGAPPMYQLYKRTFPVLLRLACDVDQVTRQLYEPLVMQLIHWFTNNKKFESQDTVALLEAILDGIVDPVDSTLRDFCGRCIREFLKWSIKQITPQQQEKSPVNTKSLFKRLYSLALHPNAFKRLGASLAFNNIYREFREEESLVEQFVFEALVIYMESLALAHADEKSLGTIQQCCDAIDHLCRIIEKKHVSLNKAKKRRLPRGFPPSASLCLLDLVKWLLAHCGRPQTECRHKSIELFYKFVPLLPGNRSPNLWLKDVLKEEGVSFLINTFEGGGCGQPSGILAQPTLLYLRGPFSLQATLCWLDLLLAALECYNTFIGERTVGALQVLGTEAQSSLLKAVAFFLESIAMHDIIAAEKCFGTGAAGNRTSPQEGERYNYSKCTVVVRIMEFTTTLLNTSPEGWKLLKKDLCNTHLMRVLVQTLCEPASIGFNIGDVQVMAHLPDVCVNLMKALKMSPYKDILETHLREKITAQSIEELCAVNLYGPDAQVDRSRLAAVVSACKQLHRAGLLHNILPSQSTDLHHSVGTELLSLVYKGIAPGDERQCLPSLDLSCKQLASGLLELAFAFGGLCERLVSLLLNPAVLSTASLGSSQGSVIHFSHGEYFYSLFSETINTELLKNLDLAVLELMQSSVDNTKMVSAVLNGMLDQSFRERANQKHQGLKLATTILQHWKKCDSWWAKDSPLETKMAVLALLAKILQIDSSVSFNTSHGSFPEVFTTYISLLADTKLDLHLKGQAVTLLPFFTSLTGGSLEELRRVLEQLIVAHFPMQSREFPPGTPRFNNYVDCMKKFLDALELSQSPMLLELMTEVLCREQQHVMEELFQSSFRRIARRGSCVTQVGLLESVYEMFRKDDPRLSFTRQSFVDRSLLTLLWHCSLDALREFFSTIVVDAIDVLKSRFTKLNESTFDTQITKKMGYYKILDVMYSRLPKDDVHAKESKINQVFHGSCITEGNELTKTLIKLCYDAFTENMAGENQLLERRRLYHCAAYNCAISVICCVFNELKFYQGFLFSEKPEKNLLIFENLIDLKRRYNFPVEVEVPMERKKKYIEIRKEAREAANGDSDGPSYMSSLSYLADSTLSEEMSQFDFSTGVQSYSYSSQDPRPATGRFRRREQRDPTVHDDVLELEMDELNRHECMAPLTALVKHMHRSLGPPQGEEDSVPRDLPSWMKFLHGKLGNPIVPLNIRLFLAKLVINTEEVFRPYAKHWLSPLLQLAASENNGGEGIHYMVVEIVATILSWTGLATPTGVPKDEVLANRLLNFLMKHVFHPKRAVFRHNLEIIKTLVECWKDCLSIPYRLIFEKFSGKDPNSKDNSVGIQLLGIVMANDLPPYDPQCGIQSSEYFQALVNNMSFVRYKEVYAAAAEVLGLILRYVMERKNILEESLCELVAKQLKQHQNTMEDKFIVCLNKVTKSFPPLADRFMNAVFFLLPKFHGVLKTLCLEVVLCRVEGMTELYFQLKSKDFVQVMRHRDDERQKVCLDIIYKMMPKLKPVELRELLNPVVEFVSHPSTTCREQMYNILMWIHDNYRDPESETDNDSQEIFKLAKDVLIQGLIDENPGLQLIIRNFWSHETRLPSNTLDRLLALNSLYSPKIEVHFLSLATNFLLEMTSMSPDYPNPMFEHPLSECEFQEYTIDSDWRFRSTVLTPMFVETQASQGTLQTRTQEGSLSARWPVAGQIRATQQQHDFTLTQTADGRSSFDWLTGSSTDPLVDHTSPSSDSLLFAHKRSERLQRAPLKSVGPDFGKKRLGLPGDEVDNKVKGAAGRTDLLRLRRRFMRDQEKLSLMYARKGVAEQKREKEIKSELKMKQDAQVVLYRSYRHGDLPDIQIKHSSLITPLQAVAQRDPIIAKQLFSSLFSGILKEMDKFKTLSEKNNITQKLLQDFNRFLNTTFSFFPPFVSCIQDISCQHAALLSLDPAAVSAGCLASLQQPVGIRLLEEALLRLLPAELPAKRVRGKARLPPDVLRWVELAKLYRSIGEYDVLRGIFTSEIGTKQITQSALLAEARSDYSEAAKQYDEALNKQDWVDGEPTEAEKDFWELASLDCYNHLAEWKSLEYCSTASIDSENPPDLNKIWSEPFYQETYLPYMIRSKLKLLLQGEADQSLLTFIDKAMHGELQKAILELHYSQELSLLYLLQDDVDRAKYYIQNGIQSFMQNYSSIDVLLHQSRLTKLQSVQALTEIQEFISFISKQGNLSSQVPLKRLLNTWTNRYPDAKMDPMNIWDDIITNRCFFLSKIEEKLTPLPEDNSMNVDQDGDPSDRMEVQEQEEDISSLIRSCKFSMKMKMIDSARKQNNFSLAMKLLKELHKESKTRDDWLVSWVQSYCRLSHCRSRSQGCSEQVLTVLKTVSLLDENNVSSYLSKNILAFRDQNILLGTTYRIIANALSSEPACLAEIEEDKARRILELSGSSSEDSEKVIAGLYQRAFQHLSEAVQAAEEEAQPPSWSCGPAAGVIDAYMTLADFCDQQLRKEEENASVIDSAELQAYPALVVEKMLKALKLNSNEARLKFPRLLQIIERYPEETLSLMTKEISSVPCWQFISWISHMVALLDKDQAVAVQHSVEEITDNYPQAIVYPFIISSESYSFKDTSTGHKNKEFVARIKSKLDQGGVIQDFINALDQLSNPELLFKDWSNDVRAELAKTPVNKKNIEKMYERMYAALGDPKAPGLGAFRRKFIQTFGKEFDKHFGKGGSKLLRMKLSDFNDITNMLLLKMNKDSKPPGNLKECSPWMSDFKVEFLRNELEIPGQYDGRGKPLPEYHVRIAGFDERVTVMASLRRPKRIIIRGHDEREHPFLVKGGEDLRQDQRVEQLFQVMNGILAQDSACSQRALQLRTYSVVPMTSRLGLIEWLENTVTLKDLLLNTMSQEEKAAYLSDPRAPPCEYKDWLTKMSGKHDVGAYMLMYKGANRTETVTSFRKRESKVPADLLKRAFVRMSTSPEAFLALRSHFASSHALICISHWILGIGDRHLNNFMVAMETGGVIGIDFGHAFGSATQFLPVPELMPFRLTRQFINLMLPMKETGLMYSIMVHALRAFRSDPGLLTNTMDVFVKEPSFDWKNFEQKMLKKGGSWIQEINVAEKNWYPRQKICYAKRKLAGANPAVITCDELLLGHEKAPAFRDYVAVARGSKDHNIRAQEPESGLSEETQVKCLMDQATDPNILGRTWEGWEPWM

| SMILES | IC50 [nM] |
| --- | --- |
| O=c1cc(N2CCOCC2)c2cc(-c3cc4ccccc4s3)ccc2o1 | > 10000 |
| O=c1cc(N2CCOCC2)c2cc(-c3cccc4c3sc3ccccc34)ccc2o1 | > 10000 |
| O=c1cc(N2CCOCC2)c2cc(-c3cccc4c3oc3ccccc34)ccc2o1 | > 10000 |
| O=c1cc(N2CCOCC2)c2cc(-c3ccccc3)ccc2o1 | 1800 |
| O=c1oc(N2CCOCC2)cc2ccccc12 | > 10000 |
| COc1cccc2c(=O)oc(N3CCOCC3)cc12 | 3200 |
| O=c1oc(N2CCOCC2)cc2c(-c3ccccc3)cccc12 | 2600 |
| O=c1cc(N2CCOCC2)c2ccc(-c3cc4ccccc4s3)cc2o1 | > 10000 |
| O=c1cc(N2CCOCC2)c2ccc(-c3cccc4c3sc3ccccc34)cc2o1 | 2100 |
| O=c1cc(N2CCOCC2)c2ccc(-c3cccc4c3oc3ccccc34)cc2o1 | 2100 |
| O=c1cc(N2CCOCC2)c2ccc(-c3cccc(-c4ccccc4)c3)cc2o1 | > 10000 |
| COc1ccc2oc(=O)cc(N3CCOCC3)c2c1 | 1700 |
| COc1ccc2c(N3CCOCC3)cc(=O)oc2c1 | 5400 |
| O=c1cc(N2CCOCC2)oc2ccccc12 | > 10000 |
| COc1cccc2c(=O)cc(N3CCOCC3)oc12 | 1800 |

The remaining compounds from weak to strong by IC50, led by results:

| IC50 [nM] | SMILES |
| --- | --- |
| 1700 | O=c1cc(N2CCOCC2)c2ccc(-c3ccccc3)cc2o1 |
| 1600 | O=c1cc(N2CCOCC2)c2cc(-c3cccc(-c4ccccc4)c3)ccc2o1 |
| 1200 | O=c1cc(N2CCOCC2)c2cc(-c3cccs3)ccc2o1 |
| 680 | O=c1oc(N2CCOCC2)cc2c(-c3cccc(-c4ccccc4)c3)cccc12 |
| 600 | O=c1cc(N2CCOCC2)c2ccc(-c3cccs3)cc2o1 |
| 340 | O=c1oc(N2CCOCC2)cc2c(-c3cccc4c3sc3ccccc34)cccc12 |
| 330 | O=c1oc(N2CCOCC2)cc2c(-c3cccc4c3oc3ccccc34)cccc12 |
| 30 | O=c1cc(N2CCOCC2)oc2c(-c3cccc4c3sc3ccccc34)cccc12 |
| 5 | CCN1CCN(CC(=O)Nc2ccc(-c3cccc4c(=O)cc(N5CCOCC5)oc34)c3sc4ccccc4c23)CC1 |
